Results published in patent US3980794A, “Method for promoting growth of poultry with 3-(5-nitro-2-imidazolyl)pyrazoles” (Eli Lilly and Company, priority 1975, dated 1976).
Converted amounts (≈) assume the structure as drawn. Read-outs that look alike come from different tables or passages of the source.

Experiments:
Type in all cases: cell-based
[1] = tested on: Fusobacterium necrophorum 13859; test: Susceptibility of anaerobic bacteria, agar dilution; settings: read-out: 24 Hr. Minimum Inhibitory Concentration
[2] = tested on: Bacteroides fragilis sp. fragilis 1936B; test: as above; settings: 24 h, read-out: 24 Hr. Minimum Inhibitory Concentration
[3] = tested on: Propionibacterium acnes 79; test: as above; settings: read-out: 24 Hr. Minimum Inhibitory Concentration
[4] = tested on: Peptococcus anaerobius 1428; test: as above; settings: 24 h, read-out: 24 Hr. Minimum Inhibitory Concentration
[5] = tested on: Clostridium perfringens 81; test: microbe, parasite or virus in culture; settings: Clostridium perfringens, 81, 24 h, read-out: 24 Hr. Minimum Inhibitory Concentration
[6] = tested on: Bacteroides fragilis sp. vulgatus 1211; test: Susceptibility of anaerobic bacteria, agar dilution; settings: 24 h, read-out: 24 Hr. Minimum Inhibitory Concentration
[7] = tested on: Eubacterium aerofaciens 1235; test: as above; settings: read-out: 24 Hr. Minimum Inhibitory Concentration
[8] = tested on: Clostridium septicum bovine; test: as above; settings: 24 h, read-out: 24 Hr. Minimum Inhibitory Concentration
Procedure: (§1) The susceptibility of anaerobic bacteria, both gram positive and gram negative, to a representative number of the novel compounds of this application was determined using the agar dilution method. The bacteria used were isolated from patients hospitalized at the Indiana University Medical Center. The isolates were identified in the anaerobe laboratory of the Medical Center by the criteria established by Dowell et al., Laboratory Methods in Anaerobic Bacteriology. Public Health Serv. Publ. No. 1803 (1968) [Center for Disease Control, Atlanta, Ga.]; and by Smith et al., The Pathogenic Anaerobic Bacteria, pages 96-136 (1968) [Charles C. Thomas, Publisher, Springfield, Ill.]. All the organisms were maintained in chopped meat glucose medium (Scott Labs) at room temperature.
(§2) The method used for the agar dilution tests was based on the studies of Sutter et al., Antimicrob. Ag. Chemother. 3, 188-193 (1973). The strains of anaerobic bacteria were grown in 16 × 120 mm. tubes for 16 to 18 hours in Thioglycolate medium without indicator--135C (Becton, Dickinson and Co.), to which was added 5 mcg. of hemin per milliliter prior to autoclaving, plus 1 mg. of sodium bicarbonate and 0.1 mcg. of filter-sterilized menadione per milliliter after autoclaving. The growth tubes for the bacteria Veillonella alcalescens were additionally supplemented with 5 mg. of sodium lactate per milliliter. The strains were adjusted to the turbidity of the No. 1 McFarland standard in Thioglycolate medium without indicator--135C containing an additional 0.13 percent Bacto-agar (Difco). Each strain was then applied to the surface of the petri plate (100 mm. × 15 mm.) by means of a replicator.
(§3) For the agar dilution studies, two-fold dilutions of the test compounds were prepared in deionized water to which was then added laked sheep blood and filter-sterilized menadione so the concentrations after the agar dilution were 5 percent and 10 mcg./ml. respectively. An equal volume of double strength Brucella agar (Becton, Dickinson and Co.) was mixed with each dilution in a water bath held at 50°C. and then poured onto the petri plates.
(§4) All of the procedures were done inside a plastic glove box, except for the incubation of the growth tubes and the pouring of the plates. After the plates hardened, they were put inside the glove box for a minimum of two hours before they were inoculated. Generally, the glove box procedures of Aranki et al., Applied Microbiology 17, 568-576 (1969), were followed, but the following modifications were used. Dry materials were introduced into the glove box by evacuating the lock to 28 inches of mercury and filling once with nitrogen gas, followed by evacuating in the same manner and filling with an 80 percent nitrogen plus 10 percent CO2 plus 10 percent hydrogen gas mixture. Liquid media and agar plates were introduced into the glove box by evacuating the lock to 10 inches of mercury and filling with gas four times. The nitrogen gas was used to fill the lock for the first two cycles of evacuation, with the gas mixture described above used for the final two fillings.
(§5) All the plates were incubated at 37°C. in Gas Pak jars (Becton, Dickinson and Co.) containing palladium-coated alumina catalysts (reactivated after each use). The results of the agar dilution tests were read after about 24 hours of incubation. The minimum inhibitory concentration (MIC) was recorded as the lowest concentration of test compound at which there was no growth.
(§6) The results of these in vitro tests are recorded in Charts 11 and 12 which follow. The test compounds are identified in the same manner as in the previous experiments. The antibiotics cephalothin and erythromycin were also run simultaneously with the novel compounds of this application, for comparison purposes, and the results are included in Charts 11 and 12 below.

[9] = tested on: Clostridium septicum 1128; test: as above; settings: 24 h, read-out: 24 Hr. Minimum Inhibitory Concentration
Procedure: as §1, §2, §3, §4, §5, §6

Actinomyces bovis 13684 = test: as above; settings: read-out: 24 Hr. Minimum Inhibitory Concentration
Clostridium ramosum 1313 = test: as above; settings: read-out: 24 Hr. Minimum Inhibitory Concentration
[10] = tested on: Fusobacterium symbiosum 1470; test: as above; settings: read-out: 24 Hr. Minimum Inhibitory Concentration
[11] = tested on: Veillonella alcalescens 1; test: as above; settings: read-out: 24 Hr. Minimum Inhibitory Concentration
[12] = tested on: Bacteroides fragilis sp. fragilis 1877; test: as above; settings: 24 h, read-out: 24 Hr. Minimum Inhibitory Concentration
[13] = tested on: Propionibacterium acnes 44; test: as above; settings: read-out: 24 Hr. Minimum Inhibitory Concentration
[14] = tested on: Bacteroides fragilis sp. vulgatus 1563; test: as above; settings: 24 h, read-out: 24 Hr. Minimum Inhibitory Concentration
[15] = tested on: Bacteroides fragilis sp. thetaiotaomicron 1438; test: as above; settings: 24 h, read-out: 24 Hr. Minimum Inhibitory Concentration
[16] = tested on: Peptostreptococcus intermedius 1264; test: as above; settings: read-out: 24 Hr. Minimum Inhibitory Concentration
[17] = tested on: Clostridium innocuum 1373; test: as above; settings: read-out: 24 Hr. Minimum Inhibitory Concentration
[18] = Fusobacterium necrophorum, 13859, 24 h
[19] = Collinsella aerofaciens, 1235, 24 h
[20] = Thomasclavelia ramosa, 1313, 24 h
[21] = Cutibacterium acnes, 24 h, Propionibacterium acnes 44
[22] = 24 h, Peptostreptococcus intermedius 1264
[23] = [Clostridium] innocuum, 1373, 24 h
[24] = Thomasclavelia ramosa, 24 h, Clostridium ramosum 1313
[25] = Veillonella parvula, 24 h, Veillonella alcalescens 1
[26] = 24 h, Clostridium innocuum 1373
[27] = 24 h, Fusobacterium necrophorum 13859
[28] = Bacteroides fragilis sp. fragilis 1936B
[29] = Cutibacterium acnes, 24 h, Propionibacterium acnes 79
[30] = Bacteroides fragilis sp. vulgatus 1211
[31] = Collinsella aerofaciens, 24 h, Eubacterium aerofaciens 1235
[32] = 24 h, Fusobacterium symbiosum 1470
[33] = Bacteroides fragilis sp. fragilis 1877
[34] = Bacteroides fragilis sp. vulgatus 1563
[35] = Bacteroides fragilis sp. thetaiotaomicron 1438

CCOC=Nc1c(C#N)c(-c2ncc([N+](=O)[O-])n2C)nn1C [Compound 4, Ethyl N-[4-cyano-1-methyl-3-(1-methyl-5-nitro-2-imidazolyl)-pyrazol-5-yl]formimidate]
MIC [1, 18]: < 0.125 µg/mL
MIC ([2]; Bacteroides fragilis): < 0.125 µg/mL
MIC ([3]; Cutibacterium acnes, 79, 24 h): < 0.125 µg/mL
MIC [4]: < 0.125 µg/mL
MIC [5]: < 0.125 µg/mL
MIC ([6]; Bacteroides fragilis): < 0.125 µg/mL
MIC [7, 19]: < 0.125 µg/mL
MIC [8]: < 0.125 µg/mL
MIC [9]: < 0.125 µg/mL
MIC (Actinomyces bovis 13684; Actinomyces bovis, 13684, 24 h): < 0.125 µg/mL
MIC (Clostridium ramosum 1313; [20]): < 0.125 µg/mL
MIC ([10]; Fusobacterium, 1470, 24 h): < 0.125 µg/mL
MIC ([11]; Veillonella parvula, 1, 24 h): < 0.125 µg/mL
MIC ([12]; Bacteroides fragilis): < 0.125 µg/mL
MIC [13, 21]: > 32 µg/mL
MIC ([14]; Bacteroides fragilis): < 0.125 µg/mL
MIC ([15]; Bacteroides fragilis): < 0.125 µg/mL
MIC [16, 22]: 16 µg/mL (≈ 52.8 µM)
MIC [17, 23]: < 0.125 µg/mL

CC(=O)OCC1=C(C(=O)O)N2C(=O)[C@@H](NC(=O)Cc3cccs3)[C@H]2SC1 [Cephalothin, cephalothin, reference compound]
MIC [1, 18]: < 0.5 µg/mL
MIC ([2]; Bacteroides fragilis): > 128 µg/mL
MIC ([3]; Cutibacterium acnes, 79, 24 h): 1 µg/mL (≈ 2.52 µM)
MIC [4]: 2 µg/mL (≈ 5.04 µM)
MIC [5]: 2 µg/mL (≈ 5.04 µM)
MIC ([6]; Bacteroides fragilis): 4 µg/mL (≈ 10.1 µM)
MIC [7, 19]: 2 µg/mL (≈ 5.04 µM)
MIC [8]: 4 µg/mL (≈ 10.1 µM)
MIC [9]: 1 µg/mL (≈ 2.52 µM)
MIC (Actinomyces bovis 13684; 24 h, Actinomyces bovis 13684): 2 µg/mL (≈ 5.04 µM)
MIC (Clostridium ramosum 1313; [24]): 8 µg/mL (≈ 20.2 µM)
MIC ([10]; Fusobacterium, 1470, 24 h): 64 µg/mL (≈ 161 µM)
MIC [11, 25]: < 0.5 µg/mL
MIC ([12]; Bacteroides fragilis): > 128 µg/mL
MIC ([13]; Cutibacterium acnes, 44, 24 h): 2 µg/mL (≈ 5.04 µM)
MIC ([14]; Bacteroides fragilis): 8 µg/mL (≈ 20.2 µM)
MIC ([15]; Bacteroides fragilis): 64 µg/mL (≈ 161 µM)
MIC ([16]; Peptostreptococcus, 1264, 24 h): 1 µg/mL (≈ 2.52 µM)
MIC [17, 26]: 8 µg/mL (≈ 20.2 µM)

CNNC=Nc1c(C#N)c(-c2ncc([N+](=O)[O-])n2C)nn1C [Compound 21, N-[4-Cyano-1-methyl-3-(1-methyl-5-nitroimidazol-2-yl)pyrazol-5-yl]formimidic acid, 2-methyl hydrazide]
MIC [1, 18]: < 0.125 µg/mL
MIC ([2]; Bacteroides fragilis): < 0.125 µg/mL
MIC ([3]; Cutibacterium acnes, 79, 24 h): < 0.125 µg/mL
MIC [4]: < 0.125 µg/mL
MIC [5]: < 0.125 µg/mL
MIC ([6]; Bacteroides fragilis): < 0.125 µg/mL
MIC [7, 19]: < 0.125 µg/mL
MIC [8]: < 0.125 µg/mL
MIC [9]: < 0.125 µg/mL
MIC (Actinomyces bovis 13684; Actinomyces bovis, 13684, 24 h): < 0.125 µg/mL
MIC (Clostridium ramosum 1313; [20]): < 0.125 µg/mL
MIC ([10]; Fusobacterium, 1470, 24 h): < 0.125 µg/mL
MIC ([11]; Veillonella parvula, 1, 24 h): < 0.125 µg/mL
MIC ([12]; Bacteroides fragilis): < 0.125 µg/mL
MIC [13, 21]: 32 µg/mL (≈ 106 µM)
MIC ([14]; Bacteroides fragilis): < 0.125 µg/mL
MIC ([15]; Bacteroides fragilis): < 0.125 µg/mL
MIC [16, 22]: 0.5 µg/mL (≈ 1.65 µM)
MIC [17, 23]: < 0.125 µg/mL

Cn1nc(-c2ncc([N+](=O)[O-])n2C)c(C(=O)O)c1N [Compound 10A, 5-amino-1-methyl-3-(1-methyl-5-nitro-2-imidazolyl)pyrazole-4-carboxylic acid]
MIC [1, 27]: < 0.125 µg/mL
MIC [2, 28]: 8 µg/mL (≈ 30.1 µM)
MIC [3, 29]: 0.5 µg/mL (≈ 1.88 µM)
MIC ([4]; Peptococcus anaerobius 1428): 8 µg/mL (≈ 30.1 µM)
MIC [5]: 0.5 µg/mL (≈ 1.88 µM)
MIC [6, 30]: 0.25 µg/mL (≈ 0.939 µM)
MIC [7, 31]: < 0.5 µg/mL
MIC [8]: 1 µg/mL (≈ 3.76 µM)
MIC [9]: 1 µg/mL (≈ 3.76 µM)
MIC (Actinomyces bovis 13684; 24 h, Actinomyces bovis 13684): 4 µg/mL (≈ 15 µM)
MIC (Clostridium ramosum 1313; [24]): 4 µg/mL (≈ 15 µM)
MIC [10, 32]: < 0.125 µg/mL
MIC [11, 25]: < 0.125 µg/mL
MIC [12, 33]: 0.5 µg/mL (≈ 1.88 µM)
MIC [13, 21]: > 32 µg/mL
MIC [14, 34]: 0.25 µg/mL (≈ 0.939 µM)
MIC [15, 35]: 0.25 µg/mL (≈ 0.939 µM)
MIC [16, 22]: 16 µg/mL (≈ 60.1 µM)
MIC [17, 26]: 0.5 µg/mL (≈ 1.88 µM)

CN(C)S(=O)(=O)Nc1c(C#N)c(-c2ncc([N+](=O)[O-])n2C)nn1C [Compound 20]
MIC [1, 27]: 1 µg/mL (≈ 2.82 µM)
MIC [2, 28]: 2 µg/mL (≈ 5.64 µM)
MIC [3, 29]: 1 µg/mL (≈ 2.82 µM)
MIC ([4]; Peptococcus anaerobius 1428): 1 µg/mL (≈ 2.82 µM)
MIC [5]: 8 µg/mL (≈ 22.6 µM)
MIC [6, 30]: 2 µg/mL (≈ 5.64 µM)
MIC [7, 31]: 8 µg/mL (≈ 22.6 µM)
MIC [8]: 8 µg/mL (≈ 22.6 µM)
MIC [9]: 8 µg/mL (≈ 22.6 µM)
MIC (Actinomyces bovis 13684; 24 h, Actinomyces bovis 13684): 2 µg/mL (≈ 5.64 µM)
MIC (Clostridium ramosum 1313; [24]): 4 µg/mL (≈ 11.3 µM)
MIC [10, 32]: 4 µg/mL (≈ 11.3 µM)
MIC [11, 25]: 1 µg/mL (≈ 2.82 µM)
MIC [12, 33]: 4 µg/mL (≈ 11.3 µM)
MIC [13, 21]: > 32 µg/mL
MIC [14, 34]: 1 µg/mL (≈ 2.82 µM)
MIC [15, 35]: 4 µg/mL (≈ 11.3 µM)
MIC [16, 22]: 32 µg/mL (≈ 90.3 µM)
MIC [17, 26]: 16 µg/mL (≈ 45.2 µM)
